From ChEMBL document CHEMBL1139193, “Application of the Suzuki-Miyaura cross-coupling to increase antimicrobial potency generates promising novel antibacterials” (Bioorg Med Chem Lett, 2007)
Converted amounts (≈) assume the structure as drawn. The source made the active and inactive calls. The rule behind the calls is not given here. Where a SMILES comes first, the peptide text is derived from it. [ ]: non-standard residue; d: D form. Bip = N[C@@H](Cc1ccc(-c2ccccc2)cc1)C(=O)O; Phe(4-I) = N[C@@H](Cc1ccc(I)cc1)C(=O)O

Assays:
Staphylococcus aureus [1] = assay: Antibacterial activity against methicillin-resistant Staphylococcus aureus upto 100 ug/mL; format: functional, organism-based
Staphylococcus aureus [2] = assay: Antibacterial activity against Staphylococcus aureus upto 100 ug/mL; format: functional, organism-based
[3] = test system: Staphylococcus epidermidis; assay: Antibacterial activity against methicillin-resistant Staphylococcus epidermidis; format: functional
Streptococcus pyogenes [4] = assay: Antibacterial activity against Streptococcus pyogenes upto 100 ug/mL; format: functional, organism-based
Staphylococcus aureus [5] = assay: Antibacterial activity against Staphylococcus aureus; format: functional
Staphylococcus aureus [6] = assay: Antibacterial activity against methicillin-resistant Staphylococcus aureus; format: functional
Streptococcus pyogenes [7] = assay: Antibacterial activity against Streptococcus pyogenes; format: functional
[8] = Toxicity assessed as hemolysis of human erythrocytes; format: cell-based, Erythrocyte
[9] = Toxicity assessed as hemolysis of human erythrocytes at 500 ug/mL; format: cell-based, Erythrocyte; conditions: read-out: Activity

| Compound | MIC [3] | MIC (Staphylococcus aureus [5]) | MIC (Staphylococcus aureus [6]) | Activity (Streptococcus pyogenes [7]) | further results |
| --- | --- | --- | --- | --- | --- |
| N=C(N)NCCC[C@H](NC(=O)[C@H](Cc1ccc(-c2ccccc2)cc1)NC(=O)[C@@H](N)CCCNC(=N)N)C(N)=O (H-Arg-[Bip]-Arg-NH2) | 59 µM (≈ 32.6 µg/mL) |  |  |  | Activity (Staphylococcus aureus [1]): inactive; Activity (Staphylococcus aureus [2]): inactive; Activity (Streptococcus pyogenes [4]): inactive |
| CC(C)(C)c1ccc(-c2ccc(C[C@H](NC(=O)[C@@H](N)CCCNC(=N)N)C(=O)N[C@@H](CCCNC(=N)N)C(N)=O)cc2)cc1 | 4.1 µM (≈ 2.5 µg/mL) | 11 µM (≈ 6.7 µg/mL) | 9.7 µM (≈ 5.91 µg/mL) |  | MIC (Streptococcus pyogenes [7]): 25 µM (≈ 15.2 µg/mL) |
| N=C(N)NCCC[C@H](NC(=O)[C@H](Cc1ccc(-c2ccc(-c3ccccc3)cc2)cc1)NC(=O)[C@@H](N)CCCNC(=N)N)C(N)=O | 4.8 µM (≈ 3.02 µg/mL) | 9.1 µM (≈ 5.72 µg/mL) | 8.3 µM (≈ 5.22 µg/mL) |  | EC50 [8]: 420 µg/mL (≈ 668 µM); MIC (Streptococcus pyogenes [7]): 20 µM (≈ 12.6 µg/mL) |
| CCCCc1ccc(-c2ccc(C[C@H](NC(=O)[C@@H](N)CCCNC(=N)N)C(=O)N[C@@H](CCCNC(=N)N)C(N)=O)cc2)cc1 | 4.1 µM (≈ 2.5 µg/mL) | 9 µM (≈ 5.48 µg/mL) | 7 µM (≈ 4.26 µg/mL) |  | hemolysis at 500 ug/mL [9]: 40%; MIC (Streptococcus pyogenes [7]): 16 µM (≈ 9.74 µg/mL) |
| N=C(N)NCCC[C@H](NC(=O)[C@H](Cc1ccc(I)cc1)NC(=O)[C@@H](N)CCCNC(=N)N)C(N)=O (H-Arg-[Phe(4-I)]-Arg-NH2) | 116 µM (≈ 69.9 µg/mL) |  |  |  | Activity (Staphylococcus aureus [1]): inactive; Activity (Staphylococcus aureus [2]): inactive; Activity (Streptococcus pyogenes [4]): inactive |
| N=C(N)NCCC[C@H](NC(=O)[C@H](Cc1ccc(-c2cccc3ccccc23)cc1)NC(=O)[C@@H](N)CCCNC(=N)N)C(N)=O | 8.3 µM (≈ 5 µg/mL) |  | 29 µM (≈ 17.5 µg/mL) | inactive | Activity (Staphylococcus aureus [5]): inactive |
| N=C(N)NCCC[C@H](NC(=O)[C@H](Cc1ccc(/C=C/c2ccccc2)cc1)NC(=O)[C@@H](N)CCCNC(=N)N)C(N)=O | 14 µM (≈ 8.1 µg/mL) |  |  | inactive | Activity (Staphylococcus aureus [5]): inactive; Activity (Staphylococcus aureus [6]): inactive |
| N=C(N)NCCC[C@H](NC(=O)[C@H](Cc1ccc(-c2ccc3ccccc3c2)cc1)NC(=O)[C@@H](N)CCCNC(=N)N)C(N)=O | 5 µM (≈ 3.01 µg/mL) | 25 µM (≈ 15.1 µg/mL) | 25 µM (≈ 15.1 µg/mL) | inactive |  |
| N=C(N)NCCC[C@H](NC(=O)[C@H](Cc1ccc(-c2cccc(-c3ccccc3)c2)cc1)NC(=O)[C@@H](N)CCCNC(=N)N)C(N)=O | 4.8 µM (≈ 3.02 µg/mL) | 16 µM (≈ 10.1 µg/mL) | 11 µM (≈ 6.92 µg/mL) | inactive |  |
| N=C(N)NCCC[C@H](NC(=O)[C@H](Cc1ccc(-c2ccccc2-c2ccccc2)cc1)NC(=O)[C@@H](N)CCCNC(=N)N)C(N)=O | 6.4 µM (≈ 4.02 µg/mL) | 28 µM (≈ 17.6 µg/mL) | 24 µM (≈ 15.1 µg/mL) | inactive |  |
| Cc1cc(C)cc(-c2ccc(C[C@H](NC(=O)[C@@H](N)CCCNC(=N)N)C(=O)N[C@@H](CCCNC(=N)N)C(N)=O)cc2)c1 | 9 µM (≈ 5.23 µg/mL) |  |  | inactive | Activity (Staphylococcus aureus [5]): inactive; Activity (Staphylococcus aureus [6]): inactive |
